In US20040266862A1, “Method of improving animal tissue quality by supplementing the animal diet with mixed tocotrienols” (priority 2003, published 2004):
Marks after values point to notes of the source that are not given here.

Key:
swine [1] = assay: 2000-2001 swine feed test: raw pork loin color (Minolta L*); format: in vivo
Source text: (§1) Applicants assessed the effects of antioxidant supplementation on meat quality in an experiment in which pork from pigs fed one of four dietary treatments was compared across three genetic lines differing in carcass leanness and intramuscular fat content. Ninety-six pigs were used in the test, thirty-two in each of the three genetic lines. Swine feeding was initiated in September 2000. At about 80 pounds body weight the 32 pigs of each of the three genetic lines were randomly allotted to individual pens. The pigs were fed corn/soy based diets formulated to provide adequate levels of all nutrients. In addition, one of four dietary treatments was assigned to each pen: control, 1,000 ppm NAC, 500 ppm LA and 150 ppm MT.
(§2) The pigs were harvested in November and December 2000 when they had reached an average weight of 260 pounds. Meat tissue quality evaluations occurred on Jan. 28, 2001. At the packing plant individual hot carcass weight, back fat depth and loin depth were measured and lean percent was calculated. Loin pH and loin color value (Minolta L*) were recorded 24 hours post mortem.
Minolta L* color value was measured objectively using a Minolta colorimeter. The Minolta L* value is an indication of the lightness of the pork loin. A lower value indicates a darker color and thus, higher quality.

swine [2] = assay: 2000-2001 swine feed test: 24 hour raw pork loin pH; format: in vivo; conditions: for 24 hour raw pork loin pH, Increase vs. Control: overall ave.
Source text: as §1, §2

swine [3] = conditions: administered to swine; Berg, NPPC Project No. 99-164; cited from earlier work
[4] = in vitro; compared with ATA; Kamat et al. 1997; cited from earlier work

## O=C(O)CCCCC1CCSS1 (stereo not drawn) [LA, alpha-lipoic acid]
Swine [1]; Line 1 ave., 500 ppm in diet
  raw pork loin color, Minolta L* value: 52.0
Swine [1]; Line 2 ave., 500 ppm in diet
  raw pork loin color, Minolta L* value: 50.9
Swine [1]; Line 3 ave., 500 ppm in diet
  raw pork loin color, Minolta L* value: 49.1
Swine [1]; overall ave., 500 ppm in diet
  raw pork loin color, Minolta L* value: 50.7
Swine [2]; Line 1 ave., 500 ppm in diet
  24 hour raw pork loin pH: 6.00^b
Swine [2]; Line 2 ave., 500 ppm in diet
  24 hour raw pork loin pH: 5.90^b
Swine [2]; Line 3 ave., 500 ppm in diet
  24 hour raw pork loin pH: 5.99^c
Swine [2]; Overall ave. of three genetic lines, 500 ppm in diet
  24 hour raw pork loin pH: 5.99^b
Swine [2]; 500 ppm in diet
  24 hour raw pork loin pH, Increase vs. Control: 0.20
Swine [3]
  Color Score: decrease
  Loin pH: increase

## CC(=O)N[C@@H](CS)C(=O)O [NAC, N-acetylcysteine]
Swine [1]; Line 1 ave., 1,000 ppm in diet
  raw pork loin color, Minolta L* value: 49.7
Swine [1]; Line 2 ave., 1,000 ppm in diet
  raw pork loin color, Minolta L* value: 53.0
Swine [1]; Line 3 ave., 1,000 ppm in diet
  raw pork loin color, Minolta L* value: 49.0
Swine [1]; overall ave., 1,000 ppm in diet
  raw pork loin color, Minolta L* value: 50.5
Swine [2]; Line 1 ave., 1,000 ppm in diet
  24 hour raw pork loin pH: 6.07^b
Swine [2]; Line 2 ave., 1,000 ppm in diet
  24 hour raw pork loin pH: 5.78^a
Swine [2]; Line 3 ave., 1,000 ppm in diet
  24 hour raw pork loin pH: 5.93^c
Swine [2]; Overall ave. of three genetic lines, 1,000 ppm in diet
  24 hour raw pork loin pH: 5.93^b
Swine [2]; 1,000 ppm in diet
  24 hour raw pork loin pH, Increase vs. Control: 0.16

## CC(C)=CCC/C(C)=C/CC/C(C)=C/CC[C@]1(C)CCc2cc(O)c(C)c(C)c2O1 [gamma-tocotrienol]
[4]
  antioxidant activity: greater antioxidant activity than ATA

## alpha-tocotrienol
[4]
  antioxidant activity: greater antioxidant activity than ATA
